Test results reported in patent US9464092B2, “Transient protection of normal cells during chemotherapy” (G1 Therapeutics, Inc., priority 2013, dated 2016).

Assays:
Assay type in all cases: biochemical
CDK2/CyclinE = CDK2/CyclinE (Homo sapiens (Human), UniProt P24941); experiment: CDK2/CyclinE kinase assay (Nanosyn, Caliper microfluidic); details: Table 2; for IC50: read-out: CDK2/CycE IC50
Protocol: Selected compounds disclosed herein were tested in CDK4/cyclinD1, CDK6/CycD3 CDK2/CycA and CDK2/cyclinE kinase assays by Nanosyn (Santa Clara, Calif.) to determine their inhibitory effect on these CDKs. The assays were performed using microfluidic kinase detection technology (Caliper Assay Platform). The compounds were tested in 12-point dose-response format in singlicate at Km for ATP. Phosphoacceptor substrate peptide concentration used was 1 μM for all assays and Staurosporine was used as the reference compound for all assays.

CDK2/CyclinA = CDK2/CyclinA (Homo sapiens (Human), UniProt P24941); experiment: CDK2/CyclinA kinase assay (Nanosyn, Caliper microfluidic); details: Table 2; for IC50: read-out: CDK2/CycA IC50
Protocol: (§1) Selected compounds disclosed herein were tested in CDK4/cyclinD1, CDK6/CycD3 CDK2/CycA and CDK2/cyclinE kinase assays by Nanosyn (Santa Clara, Calif.) to determine their inhibitory effect on these CDKs. The assays were performed using microfluidic kinase detection technology (Caliper Assay Platform). The compounds were tested in 12-point dose-response format in singlicate at Km for ATP. Phosphoacceptor substrate peptide concentration used was 1 μM for all assays and Staurosporine was used as the reference compound for all assays. Specifics of each assay are as described below:
CDK2/CyclinA: Enzyme concentration: 0.2 nM; ATP concentration: 50 μM; Incubation time: 3 hr.

CDK4/CyclinD1 = CDK4/CyclinD1 (Homo sapiens (Human), UniProt P11802); experiment: CDK4/CyclinD1 kinase assay (Nanosyn, Caliper microfluidic); details: Table 2; read-out: CDK4/CycD1 IC50
Chain of CDK4/CyclinD1 (P11802 whole entry, species assumed): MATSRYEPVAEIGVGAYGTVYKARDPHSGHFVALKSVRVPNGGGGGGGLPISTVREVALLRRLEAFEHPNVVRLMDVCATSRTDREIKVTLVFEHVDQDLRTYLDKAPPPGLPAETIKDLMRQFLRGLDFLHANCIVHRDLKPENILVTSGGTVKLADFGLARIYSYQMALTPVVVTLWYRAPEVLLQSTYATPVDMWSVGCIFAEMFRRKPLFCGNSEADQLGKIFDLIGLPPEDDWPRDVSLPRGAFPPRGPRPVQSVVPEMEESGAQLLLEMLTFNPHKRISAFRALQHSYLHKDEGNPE
Chain of CDK4/CyclinD1 (P24385 whole entry partner, species assumed): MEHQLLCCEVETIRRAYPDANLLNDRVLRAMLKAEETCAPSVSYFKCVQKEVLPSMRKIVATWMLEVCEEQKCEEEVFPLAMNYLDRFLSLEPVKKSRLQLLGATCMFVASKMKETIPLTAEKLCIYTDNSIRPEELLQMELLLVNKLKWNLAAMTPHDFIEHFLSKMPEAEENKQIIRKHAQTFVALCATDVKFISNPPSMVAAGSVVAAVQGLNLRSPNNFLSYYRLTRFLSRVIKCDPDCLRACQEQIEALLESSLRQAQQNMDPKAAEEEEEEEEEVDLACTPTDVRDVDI
Protocol: as §1
CDK4/CyclinD1: Enzyme concentration: 1 nM; ATP concentration: 200 μM; Incubation time: 10 hr.

| Structure (SMILES) | Fold Selectivity (CDK2/CycE/CDK4) (CDK2/CyclinE) | IC50 (CDK2/CyclinE) | Fold Selectivity (CDK2/CycA/CDK4) (CDK2/CyclinA) | IC50 (CDK2/CyclinA) | IC50 (CDK4/CyclinD1) |
| --- | --- | --- | --- | --- | --- |
| CC(C)N1CCN(C(=O)c2ccc(Nc3ncc4cc5n(c4n3)C3(CCCCC3)CNC5=O)nc2)CC1 [II] | 184 | 367 nM | 120 | 239 nM | 2 nM |
| CC1(C)CN(c2ccc(Nc3ncc4cc5n(c4n3)C3(CCCCC3)CNC5=O)nc2)CCN1 [I] | 1065 | 2120 nM | 568 | 1130 nM | 2 nM |
| CCC(C)CN1[C@H](C)CN(c2ccc(Nc3ncc4cc5n(c4n3)C3(CCCC3)CNC5=O)nc2)C[C@@H]1C (some centres unmarked) [JJJ] | 1620 | 5200 nM | 882 | 2830 nM | 3.2 nM |
| C[C@@H]1CN(c2ccc(Nc3ncc4cc5n(c4n3)C3(CCCCC3)CNC5=O)nc2)CCN1C[C@@H](C)O [J] | 7707 | 5110 nM | 6546 | 4340 nM | 0.7 nM |
| CC(C)(C)CCN1CCN(c2ccc(Nc3ncc4cc5n(c4n3)C3(CCCC3)CNC5=O)nc2)CC1 [KKK] | 231 | 291 nM | 69 | 87.3 nM | 1.3 nM |
| C[C@H]1CN(c2ccc(Nc3ncc4cc5n(c4n3)C3(CCCCC3)CNC5=O)nc2)CCN1 [KK] | 762 | 1760 nM | 396 | 915 nM | 2.3 nM |
| CC1CCN(C2CCN(c3ccc(Nc4ncc5cc6n(c5n4)C4(CCCCC4)CNC6=O)nc3)CC2)C1 (centres unmarked) [K] | 1019 | 1070 nM | 703 | 738 nM | 1 nM |
| CCN(CC)C1CCN(c2ccc(Nc3ncc4cc5n(c4n3)C3(CCCC3)CNC5=O)nc2)CC1 [LLL] | 509 | 1620 nM | 1425 | 4530 nM | 3.2 nM |
| O=C1NCC2(CCCCC2)n2c1cc1cnc(Nc3ccc(C(=O)N4CCN(C5CCC5)CC4)cn3)nc12 [LL] | 103 | 202 nM | 55 | 108 nM | 2 nM |
| CC(C)N1CCN(c2ccc(Nc3ncc4cc5n(c4n3)C3(CCCCC3)CNC5=O)nc2)C[C@H]1C [L] | 789 | 4530 nM | 260 | 1490 nM | 5.7 nM |
| CCOCCN1CCN(c2ccc(Nc3ncc4cc5n(c4n3)C3(CCCC3)CNC5=O)nc2)CC1 [MMM] | 600 | 1890 nM | 314 | 990 nM | 3.2 nM |
| C[C@@H]1CN(c2ccc(Nc3ncc4cc5n(c4n3)C3(CCCCC3)CNC5=O)nc2)C[C@H](C)N1C[C@@H](C)O [MM] | 1863 | 3390 nM | 328 | 597 nM | 1.8 nM |
| C[C@H]1CN(c2ccc(Nc3ncc4cc5n(c4n3)C3(CCCCC3)CNC5=O)nc2)CCN1CCC(C)(C)C [M] | 1004 | 2280 nM | 621 | 1410 nM | 2.3 nM |
| CC1CN(c2ccc(Nc3ncc4cc5n(c4n3)C3(CCCC3)CNC5=O)nc2)CCN1CC1CC1 (centres unmarked) [NNN] | 2154 | 2930 nM | 743 | 1010 nM | 1.4 nM |
| C[C@@H]1CN(c2ccc(Nc3ncc4cc5n(c4n3)C3(CCCCC3)CNC5=O)nc2)CCN1C [NN] | 1274 | 4700 nM | 423 | 1560 nM | 3.7 nM |
| O=C1NCC2(CCCC2)n2c1cc1cnc(Nc3ccc(C(=O)N4CCN(CC5CC5)CC4)cn3)nc12 [OOO] | 164 | 393 nM | 85 | 203 nM | 2.4 nM |
| CC1CN(c2ccc(Nc3ncc4cc5n(c4n3)C3(CCCCC3)CNC5=O)nc2)C[C@@H](C)N1CC1CC1 (some centres unmarked) [OO] | 442 | 3980 nM | 63 | 570 nM | 9 nM |
| CC(C)N1CCN(c2ccc(Nc3ncc4cc5n(c4n3)C3(CCCCC3)CNC5=O)nc2)CC1C (centres unmarked) [PP] | 1146 | 3600 nM | 984 | 3090 nM | 3.1 nM |
| C[C@@H]1CN(c2ccc(Nc3ncc4cc5n(c4n3)C3(CCCCC3)CNC5=O)nc2)C[C@H](C)N1 [P] | 1085 | 3560 nM | 308 | 1010 nM | 3.3 nM |
| CCN(CC)C1CCN(c2ccc(Nc3ncc4cc5n(c4n3)C3(CCCCC3)CNC5=O)nc2)C1 (centres unmarked) [QQ] | 746 | 3060 nM | 627 | 2570 nM | 4.1 nM |
| CCN(CC)C1CCN(C2CCN(c3ccc(Nc4ncc5cc6n(c5n4)C4(CCCCC4)CNC6=O)nc3)CC2)C1 (centres unmarked) [RR] | 1374 | 1580 nM | 603 | 693 nM | 1.2 nM |
| C[C@H]1CN(c2ccc(Nc3ncc4cc5n(c4n3)C3(CCCCC3)CNC5=O)nc2)CCN1C [R] | 3918 | 1920 nM | 2776 | 1360 nM | 0.5 nM |
| O=C1NCC2(CCCC2)n2c1cc1cnc(Nc3ccc(N4CCOCC4)nn3)nc12 [SSS] | 1112 | 2280 nM | 917 | 1880 nM | 2 nM |
| CN(C)C1CCN(c2ccc(Nc3ncc4cc5n(c4n3)C3(CCCCC3)CNC5=O)nn2)CC1 [SS] | 1865 | 1460 nM | 1775 | 1390 nM | 0.8 nM |
| C[C@@H](O)CN1CCN(c2ccc(Nc3ncc4cc5n(c4n3)C3(CCCCC3)CNC5=O)nc2)CC1 [S] | 718 | 1250 nM | 197 | 342 nM | 1.7 nM |
| CC(C)N1CCN(c2ccc(Nc3ncc4cc5n(c4n3)C3(CCCCC3)CNC5=O)nn2)CC1 [TT] | 1550 | 1260 nM | 733 | 596 nM | 0.8 nM |
| C[C@@H](O)CN1CCN(c2ccc(Nc3ncc4cc5n(c4n3)C3(CCCC3)CNC5=O)nc2)C[C@@H]1C [VV] | 809 | 2630 nM | 243 | 789 nM | 3.3 nM |
| C[C@@H]1CN(c2ccc(Nc3ncc4cc5n(c4n3)C3(CCCCC3)CNC5=O)nc2)CCN1 [V] | 1224 | 3500 nM | 745 | 2130 nM | 2.9 nM |
